Columns and labels:
[1] = test system: Mouse; assay: concentration in plasma after dosing; details: 2 h; dosed: 2-Hydroxy-4-methoxybenzophenone; 50 mg/kg; iv; Male; B6C3F1
[2] = test system: Mouse; assay: concentration in plasma after dosing; details: 10 min; dosed: 2-Hydroxy-4-methoxybenzophenone; 500 mg/kg; oral; Male; B6C3F1
[3] = test system: Mouse; assay: concentration in plasma after dosing; details: dosed: 2-Hydroxy-4-methoxybenzophenone, 100 mg/kg, oral, Male, B6C3F1
[4] = test system: Mouse; assay: concentration in plasma after dosing; details: 2 h; dosed: 2-Hydroxy-4-methoxybenzophenone; 50 mg/kg; iv; Male; B6C3F1; remark: listed apart in the source
[5] = test system: Rat; assay: concentration in plasma after dosing; details: 0.5 h; dosed: Nitrite; 80 mg/kg; oral; Female; F344
[6] = test system: Rat; assay: concentration in plasma after dosing; details: 5 min; dosed: Nitrite; 40 mg/kg; oral; Female; Harlan Sprague-Dawley
[7] = test system: Rat; assay: concentration in plasma after dosing; details: dosed: Nitrite, 20 mg/kg, iv, Male, F344
[8] = test system: Rat; assay: concentration in plasma after dosing; details: 5 min; dosed: Nitrite; 80 mg/kg; oral; Female; F344
[9] = test system: Rat; assay: concentration in brain after dosing; details: 12 h; dosed: Perfluorooctanoic acid; 12 mg/kg; oral; Male; Harlan Sprague Dawley
[10] = test system: Rat; assay: concentration in liver after dosing; details: 12 h; dosed: Fluorotelomer alcohol 8+2; 80 mg/kg; oral; Female; Harlan Sprague Dawley
[11] = test system: Rat; assay: concentration in liver after dosing; details: 3 h; dosed: Fluorotelomer alcohol 8+2; 24 mg/kg; oral; Male; Harlan Sprague Dawley
[12] = test system: Rat; assay: concentration in liver after dosing; details: 12 h; dosed: Fluorotelomer alcohol 8+2; 24 mg/kg; oral; Male; Harlan Sprague Dawley
[13] = test system: Rat; assay: concentration in liver after dosing; details: 3 h; dosed: Perfluorooctanoic acid; 80 mg/kg; oral; Female; Harlan Sprague Dawley
[14] = test system: Rat; assay: concentration in kidney after dosing; details: 24 h; dosed: Perfluorooctanoic acid; 12 mg/kg; oral; Male; Harlan Sprague Dawley
[15] = test system: Rat; assay: concentration in plasma after dosing; details: dosed: 678-39-7, 40 mg/kg, iv, Male, F344
[16] = test system: Rat; assay: concentration in kidney after dosing; details: 3 h; dosed: Fluorotelomer alcohol 8+2; 80 mg/kg; oral; Female; Harlan Sprague Dawley
[17] = test system: Rat; assay: concentration in plasma after dosing; details: dosed: 678-39-7, 40 mg/kg, iv, Male, F344; remark: listed apart in the source
[18] = test system: Rat; assay: concentration in liver after dosing; details: 1 h; dosed: Potassium Perfluorobutane Sulfonate; 20 mg/kg; oral; Male; Harlan Sprague Dawley
[19] = test system: Rat; assay: concentration in liver after dosing; details: 1 h; dosed: Potassium Perfluorobutane Sulfonate; 20 mg/kg; oral; Female; Harlan Sprague Dawley
[20] = test system: Rat; assay: concentration in plasma after dosing; details: dosed: Potassium Perfluorobutane Sulfonate, 4 mg/kg, iv, Male, F344
[21] = test system: Rat; assay: concentration in plasma after dosing; details: dosed: Potassium Perfluorobutane Sulfonate, 4 mg/kg, iv, Male, F344; remark: listed apart in the source
[22] = test system: Rat; assay: concentration in plasma after dosing; details: 1.5 h; dosed: Potassium Perfluorobutane Sulfonate; 4 mg/kg; iv; Male; F344
[23] = test system: Rat; assay: concentration in kidney after dosing; details: 6 h; dosed: Potassium Perfluorobutane Sulfonate; 20 mg/kg; oral; Female; Harlan Sprague Dawley
[24] = test system: rat; assay: concentration in liver after dosing (ugEq/g tissue); details: dosed: benzo[a]pyrene, iv, male, Wistar
[25] = test system: rat; assay: amount in urine after dosing (umol); details: dosed: methanol, 100 mg/kg, iv, male, CDF(F344)/CrlBR

COc1ccc(C(=O)c2ccccc2)c(O)c1 [2-Hydroxy-4-methoxybenzophenone]
Details | concentration in plasma [ng/mL]
[1] | 267
[2] | 93.1
[4] | 236

[3]
Details | concentration in plasma [ng/mL]
0.25 h | 113
2 h | 24.1
2.5 min | 84.8
3 h | 18.6
10 min | 27.8

O=N[O-] [Nitrite]
Details | concentration in plasma [ng/mL]
[5] | 69300
[6] | 4100
[8] | 9600

[7]
Details | concentration in plasma [ng/mL]
0.75 h | 2300
2 min | 21300

O=C(O)C(F)(F)C(F)(F)C(F)(F)C(F)(F)C(F)(F)C(F)(F)C(F)(F)F [Perfluorooctanoic acid]
Details | concentration in brain [ng/g] | concentration in kidney [ng/g] | concentration in liver [ng/g]
[9] | 1260 | – | –
[10] | – | – | 498
[11] | – | – | 1430
[12] | – | – | 1350
[13] | – | – | 162000
[14] | – | 29700 | –
[16] | – | 2070 | –

concentration in plasma [ng/mL]
Details | 0.25 h | 0.5 h | 3 h | 6 h | 12 h
[15] | – | 219000 | 1660 | – | 28000
[17] | 264000 | – | – | 108000 | –

O=S(=O)([O-])C(F)(F)C(F)(F)C(F)(F)C(F)(F)F.[K+] [Potassium Perfluorobutane Sulfonate]
Details | concentration in kidney [ng/g] | concentration in liver [ng/g] | concentration in plasma [ng/mL]
[18] | – | 110000 | –
[19] | – | 27800 | –
[22] | – | – | 1740
[23] | 587 | – | –

concentration in plasma [ng/mL]
Details | 0.25 h | 3 h | 5 min | 6 h
[20] | 27200 | – | – | 4170
[21] | – | 476 | 29200 | –

c1ccc2c(c1)cc1ccc3cccc4ccc2c1c34 [benzo[a]pyrene]
concentration in liver, [24]
Details | 2 mg/kg | 6 mg/kg | 15 mg/kg
0.5 h | 2.43 | 11.4 | 15.2
0.75 h | 1.34 | 11.1 | 13.1
1 h | 0.34 | 5.54 | 4.86
1.5 h | 0.91 | 1.32 | 8.51
2 h | 0.01 | 0.55 | 3.39
3 h | – | 0.15 | 0.72
4 h | – | 0.09 | 0.24
5 h | – | 0.06 | 0.14
5 min | 11.3 | 31.2 | 27.5
6 h | – | 0.06 | 0.16
8 h | – | 0.02 | 0.05
10 min | 6.52 | 24.3 | 29.8
20 min | 4.01 | 16.1 | 21.9
24 h | – | 0.01 | 0.01
32 h | – | 0.02 | –

CO [methanol]
[25]
Details | amount in urine
0.9988 h | 1.09
2.972 h | 5.07
5.961 h | 7.79
9.961 h | 11.5
11.92 h | 11.7
14.89 h | 11.7
